In publication PMC4894406, “Results of an abbreviated phase-II study with the Akt Inhibitor MK-2206 in Patients with Advanced Biliary Cancer” (Scientific Reports, 2015):
Several values for one entry are separate records, joined by “and”; a condition that tells them apart may be missing. Equal values may be shown once. Entries after “also recorded” stand apart in the source; their conditions may differ.

Columns and labels:
[1] = Phase II study: toxicities (NCI-CTCAE v4.0); type: in vivo, human; conditions: 200 mg weekly, n = 8
Procedure: The starting dose and schedule for MK-2206 was 200 mg given weekly in 28-day cycles without interruption. Treatment was administered on an outpatient basis. Two levels of dose reductions were planned (135 mg weekly and 90 mg weekly) with patients taken off the study for additional dose reductions.
Radiologic assessment was done by computed tomography every 8 weeks and responses were measured according to RECIST 1.1[17]. Toxicities were defined by the NCI-Common Terminology Criteria of Adverse Events version 4.0.

[2] = test system: advanced, refractory biliary cancer; test: Phase II study: efficacy (RECIST 1.1, PFS, OS); type: in vivo, human; conditions: for Overall Survival / Progression-Free Survival: 200 mg weekly (text b31 gives months)
Description: This was a National Cancer Institute (NCI)/Cancer Therapy Evaluation Program (CTEP)-sponsored phase II, open label, multicenter trial led by The Ohio State University with the participation of Georgetown University and Case Western University (ClinicalTrials.gov NCT01425879, date of registration 08/27/2011). MK-2206 was provided by NCI/CTEP. The primary objective of this study was to determine the overall response rate (complete response and partial response) as defined by RECIST[17]. Tumor tissue samples were required from all patients prior to enrollment. Secondary objectives included overall survival (OS), progression-free survival (PFS), and the presence of any mutations in the pI3k/AKT pathway and the evaluation of toxicities related to MK-2206. The starting dose and schedule for MK-2206 was 200 mg given weekly in 28-day cycles without interruption. Treatment was administered on an outpatient basis. Two levels of dose reductions were planned (135 mg weekly and 90 mg weekly) with patients taken off the study for additional dose reductions. Radiologic assessment was done by computed tomography every 8 weeks and responses were measured according to RECIST 1.1[17]. Toxicities were defined by the NCI-Common Terminology Criteria of Adverse Events version 4.0.

human Akt (Akt-1) = conditions: cited from earlier work
human Akt (Akt-3) = conditions: cited from earlier work
CYP3A4 = test system: CYP3A4; design: method as in PMID 24387695; conditions: read-out: IC50 CYP3A4 inhibition; cited from earlier work
CYP2C9 = test system: CYP2C9; design: method as in PMID 24387695; conditions: read-out: IC50 CYP2C9 inhibition; cited from earlier work
CYP2D6 = test system: CYP2D6; design: method as in PMID 24387695; conditions: read-out: IC50 CYP2D6 inhibition; cited from earlier work
CYP3A = test system: CYP3A; design: method as in PMID 24387695; conditions: at 0.1 to 10 μM; cited from earlier work
P-glycoprotein = conditions: cited from earlier work
[3] = design: method as in Fouladi et al. [23]; conditions: children with refractory malignancies, 9 subjects, 120 mg/m^2 weekly oral, first dose; ref Fouladi et al. [23]; cited from earlier work

## NC1(c2ccc(-c3nc4ccn5c(=O)[nH]nc5c4cc3-c3ccccc3)cc2)CCC1 [MK-2206]
[1]
  Diarrhea, Grade 1 (%): 25%
  Dry Mouth, All toxicities (%): 25%
  Dry Mouth, Grade 1 (%): 25%
  Dry Skin, Grade 1 (%): 25%
  Fatigue, Grade 1 (%): 25%
  Fatigue, Grade 2 (%): 25%
  Fever, Grade 1 (%): 25%
  Hand Foot Syndrome, Grade 1 (%): 25%
  Hypophosphatemia, All toxicities (%): 25%
  Hypophosphatemia, Grade 2 (%): 25%
  Lymphopenia, Grade 1 (%): 25%
  Macular Rash, All toxicities (%): 63%
  Thrombocytopenia, All toxicities (%): 25%
[1]; felt to be unrelated to MK-2206
  Hyponatremia, Grade 4 (%): […]
[2]; 8 patients, 200 mg weekly
  best response for all patients: stable disease
  objective response: No patients had an objective response
[2]; observed in two patients
  duration of stable disease: […]
[2]; subject 1001, Intrahepatic, 200 mg weekly
  Best response: Progressive disease
[2]; subject 1001, Intrahepatic
  Overall Survival: 2.2
[2]; subject 1002, Intrahepatic, 200 mg weekly
  Best response: Progressive disease
[2]; subject 1002, Intrahepatic
  Overall Survival: […]
  Progression-Free Survival: […]
[2]; subject 1003, Intrahepatic, 200 mg weekly
  Best response: Progressive disease
[2]; subject 1003, Intrahepatic
  Overall Survival: […]
  Progression-Free Survival: […]
[2]; subject 1004, Intrahepatic, 200 mg weekly
  Best response: Progressive disease
[2]; subject 1004, Intrahepatic
  Overall Survival: […]
  Progression-Free Survival: […]
[2]; subject 1005, Intrahepatic, 200 mg weekly
  Best response: Stable disease
[2]; subject 1005, Intrahepatic
  Overall Survival: 20.2
  Progression-Free Survival: 3.4
[2]; subject 1007, Extrahepatic, 200 mg weekly
  Best response: Progressive disease
[2]; subject 1007, Extrahepatic
  Progression-Free Survival: 6.6
[2]; subject 2006, Intrahepatic, 200 mg weekly
  Best response: Progressive disease
[2]; subject 2006, Intrahepatic
  Overall Survival: […]
  Progression-Free Survival: […]
[2]; subject 2008, Extrahepatic, 200 mg weekly
  Best response: Stable disease
[2]; subject 2008, Extrahepatic
  Overall Survival: […]
  Progression-Free Survival: […]
Human Akt (Akt-1)
  IC50: 8 nM
Human Akt (Akt-3)
  IC50: […]
CYP3A4
  IC50: […]
CYP2C9
  IC50: […]
CYP2D6
  IC50: […]
CYP3A
  effect on CYP3A mRNA and activity: insignificant effect
P-glycoprotein
  P-glycoprotein substrate: substrate of P-glycoprotein
[3]
  CL/F/m^2 (BSA-adjusted CL/F): […]
  Cmax: […]
  Half life: […]
  Tmax: […]
  Vz/F/m^2: […]
